The results in this text go back to ChEMBL document CHEMBL4392834, “Polymorphs, co-crystal structure and pharmacodynamics study of MBRI-001, a deuterium-substituted plinabulin derivative as a tubulin polymerization inhibitor” (Bioorg Med Chem, 2019).

The subject of data set [1] is NCI-H1975. The experiment in a line: Antiproliferative activity in human NCI-H1975 cells assessed as inhibition of cell proliferation at 3.125 nM incubated for 72 hrs by MTT assay. The data set is classed as functional. The conditions noted are these: NCI-H1975, 72 h. On the technique in general: Formazan colour is commonly taken as a measure of viable cells.
Data set [2] concerns A549. As to the kind of experiment: Antiproliferative activity in human A549 cells assessed as inhibition of cell proliferation at 3.125 nM incubated for 72 hrs by MTT assay. It counts as functional. The conditions noted are these: A549, 72 h.
The test system of data set [3] is A549. The experiment in a line: Cytotoxicity in human A549 cells assessed as reduction in cell viability incubated for 72 hrs by MTT assay. The data set is classed as functional, cell-based. The conditions noted are these: A549, 72 h.
The subject of data set [4] is NCI-H1975. As to the kind of experiment: Antiproliferative activity in human NCI-H1975 cells assessed as inhibition of cell proliferation at 50 nM incubated for 72 hrs by MTT assay. To be noted: NCI-H1975, 72 h. The data set is classed as functional.
Data set [5] concerns A549. As to the kind of experiment: Antitumor activity against human A549 cells xenografted in Balb/c nude mouse assessed as tumor volume at 6 mg/kg, iv dosed as Q3D x 3 weeks regime relative to untreated control. The data set is classed as functional.
Data set [6] deals with NCI-H1975. As to the kind of experiment: Cytotoxicity in human NCI-H1975 cells assessed as reduction in cell viability incubated for 72 hrs by MTT assay. The data set is classed as functional, cell-based. To be noted: NCI-H1975, 72 h.
Data set [7] relates to NCI-H1975. As to the kind of experiment: Antiproliferative activity in human NCI-H1975 cells assessed as inhibition of cell proliferation at 6.25 nM incubated for 72 hrs by MTT assay. The data set is classed as functional. The conditions noted are these: NCI-H1975, 72 h.
The nature of data set [8]: Toxicity in human A549 cells xenografted Balb/c nude mouse assessed as body weight change weight at 3 mg/kg, iv dosed on day 0, 3, 6, 9, 12, 15 and 18 regime (reference value: 6.96%). It counts as organism-based. To be noted: in vivo. Background: In xenograft studies the graft and the host belong to different species.
Data set [9] in a line: Toxicity in human A549 cells xenografted Balb/c nude mouse assessed as body weight change weight at 12 mg/kg, iv dosed on day 0, 3, 6, 9, 12, 15 and 18 regime (reference value: 6.96%). It counts as organism-based. To be noted: in vivo.
The subject of data set [10] is A549. The experiment in a line: Antiproliferative activity in human A549 cells assessed as inhibition of cell proliferation at 6.25 nM incubated for 72 hrs by MTT assay. The data set is classed as functional. The conditions noted are these: A549, 72 h.
Data set [11] relates to A549. The experiment in a line: Antitumor activity against human A549 cells xenografted in Balb/c nude mouse assessed as tumor weight at 3 mg/kg, iv dosed as Q3D x 3 weeks regime (reference value: 0.596 +/- 0.042 g). It counts as functional.
Data set [12] concerns A549. The experiment in a line: Antitumor activity against human A549 cells xenografted in Balb/c nude mouse assessed as tumor volume at 3 mg/kg, iv dosed as Q3D x 3 weeks regime relative to untreated control. The data set is classed as functional.
Data set [13] can be described thus: Toxicity in human A549 cells xenografted Balb/c nude mouse assessed as body weight change weight at 6 mg/kg, iv dosed on day 0, 3, 6, 9, 12, 15 and 18 regime (reference value: 6.96%). It counts as organism-based. To be noted: in vivo.
Data set [14] concerns A549. As to the kind of experiment: Antitumor activity against human A549 cells xenografted in Balb/c nude mouse assessed as tumor volume at 12 mg/kg, iv dosed as Q3D x 3 weeks regime relative to untreated control. It counts as functional.
Data set [15] in a line: Toxicity in Balb/c nude mouse dosed intravenously every 3 days for consecutive 21 days. It counts as organism-based. The conditions noted are these: in vivo, iv.
Data set [16] concerns A549. As to the kind of experiment: Antiproliferative activity in human A549 cells assessed as inhibition of cell proliferation at 25 nM incubated for 72 hrs by MTT assay. It counts as functional. To be noted: A549, 72 h.
For data set [17], the system named is A549. The experiment in a line: Antiproliferative activity in human A549 cells assessed as inhibition of cell proliferation at 12.5 nM incubated for 72 hrs by MTT assay. To be noted: A549, 72 h. It counts as functional.
The subject of data set [18] is A549. The experiment in a line: Antiproliferative activity in human A549 cells assessed as inhibition of cell proliferation at 1.5625 nM incubated for 72 hrs by MTT assay. To be noted: A549, 72 h. It counts as functional.
In data set [19] the test system is NCI-H1975. The experiment in a line: Antiproliferative activity in human NCI-H1975 cells assessed as inhibition of cell proliferation at 1.5625 nM incubated for 72 hrs by MTT assay. The data set is classed as functional. To be noted: NCI-H1975, 72 h.
For data set [20], the system named is A549. As to the kind of experiment: Antiproliferative activity in human A549 cells assessed as inhibition of cell proliferation at 50 nM incubated for 72 hrs by MTT assay. The data set is classed as functional. To be noted: A549, 72 h.
The subject of data set [21] is NCI-H1975. The experiment in a line: Antiproliferative activity in human NCI-H1975 cells assessed as inhibition of cell proliferation at 25 nM incubated for 72 hrs by MTT assay. It counts as functional. The conditions noted are these: NCI-H1975, 72 h.
Data set [22] has as its system NCI-H1975. As to the kind of experiment: Antiproliferative activity in human NCI-H1975 cells assessed as inhibition of cell proliferation at 12.5 nM incubated for 72 hrs by MTT assay. It counts as functional. To be noted: NCI-H1975, 72 h.
In data set [23] the test system is A549. As to the kind of experiment: Antitumor activity against human A549 cells xenografted in Balb/c nude mouse assessed as tumor weight at 6 mg/kg, iv dosed as Q3D x 3 weeks regime (reference value: 0.596 +/- 0.042 g). The data set is classed as functional.
Data set [24] concerns A549. As to the kind of experiment: Antitumor activity against human A549 cells xenografted in Balb/c nude mouse assessed as tumor weight at 12 mg/kg, iv dosed as Q3D x 3 weeks regime (reference value: 0.596 +/- 0.042 g). It counts as functional.
Data set [25] can be described thus: Toxicity in human A549 cells xenografted Balb/c nude mouse assessed as body weight change weight at 10 mg/kg, iv dosed on day 0, 7 and 14 (reference value: 6.96%). The data set is classed as organism-based. The conditions noted are these: in vivo.
Data set [26] has as its system A549. The experiment in a line: Antitumor activity against human A549 cells xenografted in Balb/c nude mouse assessed as tumor volume at 10 mg/kg, iv dosed as QW x 3 weeks regime relative to untreated control. It counts as functional.
For data set [27], the system named is A549. The experiment in a line: Antitumor activity against human A549 cells xenografted in Balb/c nude mouse assessed as tumor weight at 10 mg/kg, iv dosed as QW x 3 weeks regime (reference value: 0.596 +/- 0.042 g). The data set is classed as functional.
The target in another data set is Tubulin (Homo sapiens) (UniProt P68371+Q9H4B7+P0DPH7+P68366+Q13509+Q71U36+P04350+Q3ZCM7+P07437+P68363+Q9BQE3+Q6PEY2+Q13885+Q9BVA1+Q9BUF5). The experiment in a line: Inhibition of tubulin (unknown origin) polymerization at 5 uM. The data set is classed as protein-complex assay.

Structures are written as SMILES.

For `[2H]/C(c1nc[nH]c1C(C)(C)C)=c1/[nH]c(=O)/c(=C/c2ccccc2)[nH]c1=O`, the results for the inhibition at 0.003125 µM in the data set with NCI-H1975 [1] and in the data set with A549 [2] were 3.64 to 12.3% and 54.8 to 61.6%, respectively. For the same compound, the results for the half-maximal inhibitory concentration (IC50) in the data set on A549 [3] and in the data set with NCI-H1975 [6] were 2.5 nM and 9.3 nM, respectively. Further, the inhibition at 0.05 µM was in the range of 90.8 to 91.7% with NCI-H1975 [4] and 83.2 to 87.9% in the data set with A549 [20]. Further, the T/C is listed as 59.01% with A549 [5], 70.88% in the data set with A549 [12] and 54.39% in the data set on A549 [14]. In addition, the inhibition at 0.00625 µM with NCI-H1975 [7] was in the range of 12.3 to 22.6%; in the data set on A549 [10] it was 82 to 86.7%. In addition, the Activity in data set [8] came out at 6.75%; in [9] it was 2.36%; with A549 [11], 0.442 g; in data set [13], 6.78%; with A549 [23] it was 0.344 g; with A549 [24], 0.308 g. For the same compound, the 50% lethal dose (LD50) at 21 days in data set [15] is 18.9 mg/kg. Besides, the inhibition at 0.025 µM in the data set with A549 [16] was in the range of 88 to 88.7%; in the data set with NCI-H1975 [21], 90.4 to 91.5%. The inhibition at 0.0125 µM in the data set with A549 [17] was in the range of 83.2 to 86.3%; with NCI-H1975 [22], 70.7 to 81.7%. Besides, the inhibition at 0.0015625 µM was in the range of 0.92 to 9.22% with A549 [18] and 2.75 to 10.3% with NCI-H1975 [19].
Turning to `CC(=O)O[C@@]12CO[C@@H]1C[C@H](O)[C@@]1(C)C(=O)[C@H](O)C3=C(C)[C@@H](OC(=O)[C@H](O)[C@@H](NC(=O)OC(C)(C)C)c4ccccc4)C[C@@](O)([C@@H](OC(=O)c4ccccc4)[C@H]21)C3(C)C` [DOCETAXEL ANHYDROUS], the values for the Activity (in data set [25]; in the data set on A549 [27]) were -0.66% and 0.13 g, respectively. Also, in the data set with A549 [26], the T/C came to 26.5%.
As to `CC(C)(C)c1[nH]cnc1/C=c1\[nH]c(=O)/c(=C/c2ccccc2)[nH]c1=O` [PLINABULIN], the inhibition at 0.003125 µM in the data set on NCI-H1975 [1] was in the range of 3.89 to 15.5%; in the data set with A549 [2], 42.5 to 50.8%. Besides, the concentration for half-maximal inhibition (IC50) was 3.5 nM in the data set on A549 [3] and 10.2 nM in the data set on NCI-H1975 [6]. Moreover, the figures for the inhibition at 0.05 µM in the data set with NCI-H1975 [4] and in the data set on A549 [20] were 88.7 to 91.3% and 86.6 to 89.2%, respectively. In addition, the T/C in the data set on A549 [5] is given as 61.48%; in the data set with A549 [14], 56.7%. The inhibition at 0.00625 µM fell in the range of 13.3 to 25.7% in the data set with NCI-H1975 [7] and 88 to 88.7% in the data set with A549 [10]. The inhibition is 27.9% at Tubulin (Homo sapiens) and 30.1% against Tubulin (Homo sapiens) (tested as the 2H-labelled form). In addition, the Activity was determined as 6.33% in [9], 5.66% in data set [13], 0.349 g with A549 [23] and 0.327 g in the data set with A549 [24]. Besides, the inhibition at 0.025 µM is 88.4 to 89.5% with A549 [16] and 86.3 to 90.8% in the data set on NCI-H1975 [21]. Also, the inhibition at 0.0125 µM in the data set on A549 [17] was 85.1 to 88.9%; in the data set on NCI-H1975 [22], 61.1 to 69.1%. Also, the values for the inhibition at 0.0015625 µM in the data set on A549 [18] and with NCI-H1975 [19] were 23.3 to 29.4% and 1.03 to 11.2%, respectively.

As usually defined, the inhibition is the share of the control response that was lost under treatment. The term IC50 denotes the point on the concentration scale where inhibition reaches its midpoint. Usually T/C stands for the result in the treated group divided by that in the control group, in per cent. In general, LD50 refers to the dose expected to kill half of the subjects tested.
